We go through 2 compounds from patent US8598339B2, “Withanolide isolated from Physalis longifolia and analogs and methods of use thereof” (University of Kansas, priority 2011, dated 2013).

Data set [1] in a line: In vitro metabolism, mouse liver microsomes. Conditions: 1.0E-06 M. It is filed as in vitro ADME, mouse (CD-1). The procedure:
The in vitro metabolism of […], as compared to known reference compounds, was analyzed using liver microsomes from human, dog (Beagle), rat (Sprague-Dawley) and mouse (CD-1). […] Results are from two independent tests.
(In general: Liver microsomes are vesicles of endoplasmic reticulum, rich in cytochrome P450 enzymes.)

For another data set, the system named is BT20. Nature of the data set: MTS assay, BT20. It is filed as cell-based. The procedure: Cell proliferation was analyzed using MTS assay.
On the technique in general: Tetrazolium assays rely on reduction of a dye to a coloured formazan, in cell work by metabolically active cells.

Data set [2] deals with MDA-MB-231 cells. Kind of data set: Clonogenic assay, MDA-MB-231. Conditions: 1-2 μM; treated 24 hours, cultured two weeks. The class given is cell-based.
In data set [3] the test system is MDA-MB-231 cells. Kind of data set: Annexin V-FITC/Propidium Iodide apoptosis, MDA-MB-231. The class given is cell-based. The source says:
Therefore, this cell line was not very sensitive to X001 in this assay.

Data set [4] relates to caspase-3, PARP, BRCA-1, HSF1, mutant p53, Notch1, Jagged1 in MDA-MB-231 cells. Kind of data set: Western blot, MDA-MB-231. To be noted: 24-hour or 48-hour treatment. The class given is cell-based. Background: A western blot detects proteins with antibodies after separation by electrophoresis.
A further data set concerns Ames test strain TA1535. Nature of the data set: Ames test, TA1535.
Data set [5] deals with heat shock factor (HSF) / HSE-luciferase in Hs766T cells. Nature of the data set: HSE-luciferase reporter, Hs766T. It is filed as cell-based. Details: dose or concentration left out as unconfirmed. To be noted: heat shock 42° C. 30 minutes; recovery 8 hours. The procedure:
To monitor the activation of heat shock factor (HSF) and heat shock-mediated signal transduction pathways, Hs766T cells were transfected with a HSE-luciferase construct, then treated with 3 mM of the selected withanolides for 8 hours. The cells were heat shocked at 42° C. for 30 minutes and allowed to recover at 37° C. for 8 hours. Cells were lysed and luciferase activity was measured on a plate reader.

For data set [6], the system named is hsf1 and client proteins of Hsp90 in MIA PaCa-2 cells. Kind of data set: Western blot, MIA PaCa-2. It is filed as cell-based.
Data set [7] relates to HSF1, Hsp70 and Hsp40 mRNA. Nature of the data set: HSF1, Hsp70 and Hsp40 mRNA levels. The class given is cell-based. Conditions: Control 1.0. The procedure: Levels of HSF1, Hsp70 and Hsp40 mRNA were also determined in response to treatment with SX002 or X003 for 8 or 16 hours.
Data set [8] relates to Hs766T pancreatic cancer cells. Kind of data set: Co-treatment with carfilzomib, apoptosis, Hs766T. To be noted: 0.1, 0.2 or 0.3 μM X003 with carfilzomib (10 nM). It is filed as cell-based. The procedure:
To determine whether the instant withanolides could be used in combination with other treatment regimes, Hs766T pancreatic cancer cells were either treated with 0.1, 0.2 or 0.3 μM X003; 10 or 20 nM carfilzomib; or co-treated with carfilzomib (10 nM) and either 0.1, 0.2 or 0.3 μM X003.

For `CC1=C(CO)C(=O)O[C@@H]([C@@H](C)C2CC[C@H]3[C@@H]4C[C@H]5O[C@]56[C@@H](O)C=CC(=O)[C@]6(CO)[C@H]4CC[C@]23C)C1` (some centres unmarked) [Compound X001], the “Mean % Parent Compound Remaining” value in data set [1] was found to be 29%. The “Log ECF” value in the data set with BT20 came out at 0.91. The colony formation result with MDA-MB-231 cells [2] is on record as “strongly inhibited”. In addition, the “concentration needed to induce apoptosis” value in the data set with MDA-MB-231 cells [3] is listed as “at least 4 μM”. Moreover, the “levels of BRCA-1, HSF1, mutant p53, Notch1 and Jagged1” value in data set [4] (1, 2, 4, or 8 μM) is reported as “decreased”. For the same compound, in data set [4] (tested 1, 2, 4, or 8 μM), the “caspase-3 activation (concentration)” value lay within 4 to 8 µM. For the same compound, the “Positive Significance (− to +++)” value in the data set with Ames test strain TA1535 (1.0E−04 M, TA1535 +S9) is reported as “−”; in the data set with Ames test strain TA1535 (1.0E−04 M, TA1535 −S9) it was “−”; in the data set on Ames test strain TA1535 (1.0E−05 M, TA1535 +S9), “−”; in the data set on Ames test strain TA1535 (1.0E−05 M, TA1535 −S9), “−”; with Ames test strain TA1535 (5.0E−05 M, TA1535 +S9), “−”; in the data set with Ames test strain TA1535 (5.0E−05 M, TA1535 −S9), “−”. Further, the “Positive Significance (− to +++)” value with Ames test strain TA1535 (5.0E−06 M, TA1535 +S9) was “−”; with Ames test strain TA1535 (5.0E−06 M, TA1535 −S9) it was “−”.

For the compound `CC(=O)OCC1=C(C)C[C@H]([C@@H](C)C2CC[C@H]3[C@@H]4C[C@H]5O[C@]56[C@@H](OC(C)=O)C=CC(=O)[C@]6(COC(C)=O)[C@H]4CC[C@]23C)OC1=O` (some centres unmarked) [Compound X003, 4,19,27-triacetyl X001], the “heat shock-induced increase in luciferase activity” value in [5] is “substantially reduced”. Also, the “stress and client protein response (western blot)” value in [6] is “induced oxidative and proteotoxic stress, while depleting hsf1 and client proteins of Hsp90”. Besides, in data set [7] (8 hours), the “HSF1 mRNA level” value came out at 1.2, the “HSP40 mRNA level” value was found to be 8.3 and the “HSP70 mRNA level” value was 30.8. In [7] (16 hours), the “HSF1 mRNA level” value turned out to be 1.1, the “HSP40 mRNA level” value came out at 14.2 and the “HSP70 mRNA level” value worked out at 183.1. For the same compound, in data set [8], the “apoptosis on co-treatment with carfilzomib” value is on record as “enhances”.
